What was measured:
Type in all cases: cell-based
[1] = test system: colony forming PSCs in pre-purified cardiac clusters of murine ESC line αPIG44-D3; test: Colony formation assay after treatment of pre-purified mESC cardiac clusters; conditions: 48 h
Method: (§1) Aiming at complete elimination of remaining PSCs in PSC-derived cell aggregates, murine cardiac clusters were pre-purified with 2-4 μg/ml puromycin from day 9 until day 14 of differentiation in order to prevent complete removal of PSCs and then treated with SM6 for 2 days to assess its potential for removal of contaminating PSCs in the absence of puromycin. After treatment, cardiac clusters were dissociated with 0.25% trypsin-EDTA supplemented with 50 U/ml of DNase I and the level of PSC contamination was determined using colony formation assay, flow cytometry for SSEA-1 and RT-PCR for Oct4. In colony formation assays 2×10^5 cells were plated on a 6 cm cell culture dish containing MEF and cultured in maintenance medium supplemented with 1000 U/ml of mLIF for 7-10 days. Developing PSC colonies on MEF plates were quantified and visualized with 1% crystal violet (Fluka Analytical, St. Louis, USA) diluted in methanol (Applichem).
To confirm the PSC-eliminating effect of the compound SM6, pre-purified cardiac clusters derived from transgenic murine ESC line αPIG44-D3 were also treated with SM6. The cells were differentiated in spinner flasks and incubated for 48 h with compound SM6 as described above with the exception that pre-purification was performed with 4 μg/ml of puromycin between day 9 and day 14, as schematically illustrated in FIG. 7a).

[2] = test system: contaminating colony-forming PSCs in unpurified EBs of murine iPSCs; test: Colony formation assay after treatment of unpurified EBs; conditions: day 9 to day 16: SM6 1 μM then 5 μM from day 14; puromycin 8 μg/ml
Method: as §1
Purifying the whole CM population including GFP-negative CMs in murine PSC-derived EBs was tested with SM6 as well. […] The percentage of CM population in EBs was monitored by flow cytometry and the amount of contaminating PSCs was quantified by colony formation assay as described above. Fluorescence images of PSC-derived cell aggregates were captured with a Zeiss Axiovert 200M fluorescence microscope and analyzed with Zeiss Axiovision 4.5 software. […]

[3] = test system: pre-purified cardiac clusters of murine αPIG-AT25 iPSCs; test: Cell yield, flow cytometry and morphology of pre-purified miPSC cardiac clusters
Method: The differentiation of transgenic mPSCs was initiated in mass cultures as briefly described below. One million cells were transferred per non-adhering 10 cm dish with 14 ml differentiation medium composed of Iscove's Modified Dulbecco's Medium (IMDM) with GlutaMAX (Life Technologies) supplemented with 20% FBS, 1×NEAA and 100 μM β-ME. Embryoid bodies (EBs) from day 2 of differentiation were transferred in a 250 ml spinner flask (CELLSPIN 250, Integra Biosciences, Fernwald, Germany) with a density of 3×10^4 EBs per 200 ml of differentiation medium. On the first 2 days of differentiation medium was supplemented with 50 μg/ml L-ascorbic acid phosphate (AA, Wako pure chemicals industry, Japan) in order to promote the development of cardiac cells. For the selection of GFP-expressing CMs, 50 ml of the medium was exchanged with fresh differentiation medium and 8 μg/ml puromycin (Life Technologies) were supplemented on day 9 of differentiation. Two days later, the cardiac clusters were transferred on non-adhering 10 cm dishes with fresh differentiation medium containing 8 μg/ml puromycin. In the further course of differentiation medium was exchanged every 2-3 days. If not otherwise specified, the purification of GFP-positive CMs with puromycin was continued until day 16 of differentiation. For single cell analyses and transfer of PSC-derived CMs on cell culture plates, cardiac clusters were dissociated with 0.25% trypsin-EDTA (Life Technologies) supplemented with 50 U/ml DNase I (AppliChem, Darmstadt, Germany) for 20-30 min at 37° C. The mPSC-derived CMs were filtered through a polyamide membrane with […] pore size (Sefar, Heiden, Switzerland). Cell numbers were determined with a Neubauer hemocytometer and cells were stored on ice until further use.
as §1, with “In colony formation assays 2×10^5 cells were plated on a 6 cm cell culture dish containing MEF and cultured in maintenance medium supplemented with 1000 U/ml of mLIF for 7-10 days.” left out, “(Applichem). […]” for “(Applichem).”
Cells were measured with an Attune acoustic focusing cytometer (Life Technologies) and data was analyzed with the Attune Cytometric software v1.2.5 (Life Technologies). Marker expression was analyzed in a gated population of 10^4 viable cells. […]

[4] = test system: residual PSCs in pre-purified cardiac clusters of murine αPIG-AT25 iPSCs; test: Colony formation assay after treatment of pre-purified miPSC cardiac clusters; conditions: 48 h
Method: as §1
Murine αPIG-AT25 iPSCs were differentiated in spinner flasks and pre-purification of CMs with puromycin was initiated on day 9 for a time period of 5 days, as is schematically illustrated in FIG. 6a). Compared to the standard protocol for the selection of miPSC-CMs, the applied concentration of puromycin was reduced from 8 μg/ml to 2 μg/ml in order to preserve a small population of PSCs in the cardiac clusters which were then treated with 1 μM, 5 μM and 10 μM of compound SM6 for 48 hours.
For quantifying the residual PSCs, the cardiac cluster-derived cells were cultured on MEFs under iPSC conditions to allow PSCs to form colonies which were visualized by crystal violet staining. The pluripotency of grown colonies was confirmed by immunocytochemical stainings for Oct4, at day 7 after plating of CMs from dissociated cardiac clusters on MEF.

Compound	reduction of the number of ESC-derived colonies compared to DMSO control ([1]; puromycin 8 μg/ml) [%]	reduction of contaminating colony-forming PSCs [2] [%]	reduction of total cell yield compared to DMSO-treated control ([3]; puromycin 8 μg/ml) [%]	number of colonies after plating of 2×10^5 cells ([4]; puromycin 8 μg/ml) [colonies]	reduction of the number of colonies compared to DMSO-treated control ([4]; puromycin 8 μg/ml) [%]	reduction of the number of ESC-derived colonies compared to DMSO control ([1]; 1 μM) [%]	reduction of the number of ESC-derived colonies compared to DMSO control ([1]; 5 μM) [%]	reduction of the number of ESC-derived colonies compared to DMSO control ([1]; 10 μM) [%]	morphology and contractility of cardiac clusters ([3]; 1 μM, 5 μM and 10 μM, 48 hours)	fraction of GFP−/cTnT− non-CMs ([3]; 10 μM, flow cytometry) [%]	fraction of GFP+/cTnT+ CMs of the viable cell population ([3]; increasing concentrations of SM6, flow cytometry)	reduction of the number of colonies compared to DMSO-treated control ([4]; 1 μM) [%]	number of colonies after plating of 2×10^5 cells ([4]; 5 μM) [colonies]	number of colonies after plating of 2×10^5 cells ([4]; 10 μM) [colonies]
COc1ccc(C[C@H](N)C(=O)N[C@H]2[C@@H](O)[C@H](n3cnc4c(N(C)C)ncnc43)O[C@@H]2CO)cc1 [puromycin, reference compound]	47.83±24.89	97.55±4.02	20.55±14.43	28.9±23.37	64.87±25.55									
Oc1ccccc1CN[C@@H]1CCCC[C@H]1NCc1ccccc1O [SM6, (1R,2R)-N,N′-di(2-hydroxybenzyl)-1,2-diaminocyclohexane]		98.88±1.04				20.03±26.95	93.75±3.45	96.23±0.75	not compromised	7	up to 74%	71.9±21.19	2.00±2.94	0.37±0.60

From patent publication US11299453B2 (Universität zu Köln, priority 2017, dated 2022)
